Each structure is given as a SMILES string.

Assay [1] has as its target Mitogen-activated protein kinase kinase kinase 20 (Homo sapiens) (UniProt Q9NYL2). Briefly: Selectivity interaction (KinomeScan (DiscoverX)) EUB0000695a MAP3K20. Particulars: at 100 nM.
Assay [2] relates to Tyrosine-protein kinase ABL1 (Homo sapiens), P00519 [Q252H]. As to the kind of experiment: Selectivity interaction (KinomeScan (DiscoverX)) EUB0000666a ABL1. As to conditions: at 10 µM.
Assay [3] addresses T1, NUAK family SNF1-like kinase 1 (Homo sapiens) (UniProt O60285).
T1 sequence (whole entry): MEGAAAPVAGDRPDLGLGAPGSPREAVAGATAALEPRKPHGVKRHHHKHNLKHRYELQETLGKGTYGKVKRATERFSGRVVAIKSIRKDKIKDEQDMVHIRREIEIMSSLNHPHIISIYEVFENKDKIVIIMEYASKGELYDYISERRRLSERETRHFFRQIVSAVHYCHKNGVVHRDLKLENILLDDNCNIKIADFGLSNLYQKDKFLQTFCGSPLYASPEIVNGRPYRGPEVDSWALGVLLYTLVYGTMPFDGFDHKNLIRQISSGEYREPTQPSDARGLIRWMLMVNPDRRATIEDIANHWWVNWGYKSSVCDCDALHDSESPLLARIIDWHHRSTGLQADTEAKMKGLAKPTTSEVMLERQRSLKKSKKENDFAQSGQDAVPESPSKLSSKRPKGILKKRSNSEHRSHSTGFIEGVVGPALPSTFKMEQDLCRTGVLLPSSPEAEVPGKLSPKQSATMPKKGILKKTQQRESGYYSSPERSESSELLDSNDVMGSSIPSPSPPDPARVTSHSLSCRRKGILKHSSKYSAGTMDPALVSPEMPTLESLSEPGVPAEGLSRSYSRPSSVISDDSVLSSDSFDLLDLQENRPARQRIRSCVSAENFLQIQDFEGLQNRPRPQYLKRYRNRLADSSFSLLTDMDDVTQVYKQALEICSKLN
As to the kind of experiment: Selectivity interaction (KinomeScan (DiscoverX)) EUB0000045b NUAK1.

Assay [4] concerns the target Phosphorylase b kinase gamma catalytic chain, skeletal muscle/heart isoform (Homo sapiens) (UniProt Q16816). Briefly: Selectivity interaction (KinomeScan (DiscoverX)) EUB0000045b PHKG1.
The target in assay [5] is T2, Ephrin type-A receptor 3 (Homo sapiens) (UniProt P29320).
T2 sequence (whole entry): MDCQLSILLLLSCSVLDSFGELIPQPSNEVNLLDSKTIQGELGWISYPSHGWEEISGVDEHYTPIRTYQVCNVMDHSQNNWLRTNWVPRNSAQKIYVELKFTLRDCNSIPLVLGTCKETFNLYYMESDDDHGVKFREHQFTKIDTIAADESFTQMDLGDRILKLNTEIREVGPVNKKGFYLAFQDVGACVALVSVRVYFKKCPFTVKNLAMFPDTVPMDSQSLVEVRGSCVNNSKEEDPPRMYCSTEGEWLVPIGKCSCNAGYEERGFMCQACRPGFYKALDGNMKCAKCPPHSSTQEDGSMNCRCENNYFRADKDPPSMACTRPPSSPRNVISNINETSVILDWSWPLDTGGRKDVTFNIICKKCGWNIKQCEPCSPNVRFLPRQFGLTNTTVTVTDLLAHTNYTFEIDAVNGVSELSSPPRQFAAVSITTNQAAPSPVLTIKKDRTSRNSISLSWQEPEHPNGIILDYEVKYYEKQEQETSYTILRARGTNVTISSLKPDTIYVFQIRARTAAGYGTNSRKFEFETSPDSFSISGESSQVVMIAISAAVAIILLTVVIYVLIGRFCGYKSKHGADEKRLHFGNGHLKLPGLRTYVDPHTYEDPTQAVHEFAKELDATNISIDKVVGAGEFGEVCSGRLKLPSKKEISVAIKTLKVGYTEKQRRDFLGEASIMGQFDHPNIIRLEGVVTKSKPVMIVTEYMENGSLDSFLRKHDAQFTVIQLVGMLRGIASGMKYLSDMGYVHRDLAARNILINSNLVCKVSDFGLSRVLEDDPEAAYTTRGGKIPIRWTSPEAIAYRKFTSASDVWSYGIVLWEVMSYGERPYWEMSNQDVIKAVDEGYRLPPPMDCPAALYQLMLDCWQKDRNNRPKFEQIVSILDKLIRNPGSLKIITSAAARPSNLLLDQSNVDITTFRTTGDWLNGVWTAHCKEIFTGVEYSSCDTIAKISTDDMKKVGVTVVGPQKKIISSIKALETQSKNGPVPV
Briefly: Selectivity interaction (KinomeScan (DiscoverX)) EUB0000045b EPHA3.

Assay [6] addresses Myosin light chain kinase 2, skeletal/cardiac muscle (Homo sapiens) (UniProt Q9H1R3). As to the kind of experiment: Selectivity interaction (ProQinase) EUB0000171b MYLK2.
In assay [7] the test system is Angiopoietin-1 receptor (Homo sapiens), Q02763 [Y897S]. Briefly: (§1) Selectivity interaction (ProQinase) EUB0000171b TEK.
Sequence of Angiopoietin-1 receptor (Homo sapiens), Q02763 [Y897S] (Q02763 whole entry Y897S): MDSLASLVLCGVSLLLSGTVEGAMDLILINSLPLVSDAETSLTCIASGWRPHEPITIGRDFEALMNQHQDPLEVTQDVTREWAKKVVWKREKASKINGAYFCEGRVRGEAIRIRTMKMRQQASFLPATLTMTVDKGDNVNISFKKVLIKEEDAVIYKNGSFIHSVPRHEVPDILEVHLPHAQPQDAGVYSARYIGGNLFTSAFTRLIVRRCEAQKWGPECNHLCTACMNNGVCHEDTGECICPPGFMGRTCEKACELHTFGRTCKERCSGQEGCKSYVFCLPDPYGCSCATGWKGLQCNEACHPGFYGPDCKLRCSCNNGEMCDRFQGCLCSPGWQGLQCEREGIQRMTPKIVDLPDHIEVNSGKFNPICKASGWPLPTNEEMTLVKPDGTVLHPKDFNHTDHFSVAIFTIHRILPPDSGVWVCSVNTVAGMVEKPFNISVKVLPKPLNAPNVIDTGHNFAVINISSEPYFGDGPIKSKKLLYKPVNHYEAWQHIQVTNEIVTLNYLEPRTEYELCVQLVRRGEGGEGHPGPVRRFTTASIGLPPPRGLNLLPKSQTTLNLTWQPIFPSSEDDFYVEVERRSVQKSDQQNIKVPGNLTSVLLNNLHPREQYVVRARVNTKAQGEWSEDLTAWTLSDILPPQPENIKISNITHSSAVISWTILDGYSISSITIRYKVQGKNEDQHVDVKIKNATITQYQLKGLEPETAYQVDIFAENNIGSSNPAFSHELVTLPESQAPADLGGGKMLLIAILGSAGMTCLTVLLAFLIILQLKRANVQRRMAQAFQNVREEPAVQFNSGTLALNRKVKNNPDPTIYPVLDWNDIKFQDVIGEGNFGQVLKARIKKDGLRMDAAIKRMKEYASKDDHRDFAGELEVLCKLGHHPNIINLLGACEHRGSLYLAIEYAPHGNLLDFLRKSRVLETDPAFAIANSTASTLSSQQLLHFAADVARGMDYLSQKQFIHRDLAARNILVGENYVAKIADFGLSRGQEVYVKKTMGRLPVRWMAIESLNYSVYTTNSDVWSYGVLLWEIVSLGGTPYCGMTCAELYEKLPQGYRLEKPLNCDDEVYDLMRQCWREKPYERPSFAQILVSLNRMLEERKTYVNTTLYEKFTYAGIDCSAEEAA
In assay [8] the target is Angiopoietin-1 receptor (Homo sapiens) (UniProt Q02763). The description is as §1.
Sequence of Angiopoietin-1 receptor (Homo sapiens) (Q02763 whole entry): as the sequence (Q02763 whole entry Y897S) above, with S897Y counted along it
For assay [9], the system named is Angiopoietin-1 receptor (Homo sapiens), Q02763 [R849W]. The assay is described as §1.
Sequence of Angiopoietin-1 receptor (Homo sapiens), Q02763 [R849W] (Q02763 whole entry R849W): as the sequence (Q02763 whole entry Y897S) above, with R849W, S897Y counted along it
Assay [10] deals with Citron Rho-interacting kinase (Homo sapiens) (UniProt O14578). Briefly: Selectivity interaction (KinomeScan (DiscoverX)) EUB0000092b CIT. As to conditions: at 10 µM.
Sequence of Citron Rho-interacting kinase (Homo sapiens) (O14578 whole entry): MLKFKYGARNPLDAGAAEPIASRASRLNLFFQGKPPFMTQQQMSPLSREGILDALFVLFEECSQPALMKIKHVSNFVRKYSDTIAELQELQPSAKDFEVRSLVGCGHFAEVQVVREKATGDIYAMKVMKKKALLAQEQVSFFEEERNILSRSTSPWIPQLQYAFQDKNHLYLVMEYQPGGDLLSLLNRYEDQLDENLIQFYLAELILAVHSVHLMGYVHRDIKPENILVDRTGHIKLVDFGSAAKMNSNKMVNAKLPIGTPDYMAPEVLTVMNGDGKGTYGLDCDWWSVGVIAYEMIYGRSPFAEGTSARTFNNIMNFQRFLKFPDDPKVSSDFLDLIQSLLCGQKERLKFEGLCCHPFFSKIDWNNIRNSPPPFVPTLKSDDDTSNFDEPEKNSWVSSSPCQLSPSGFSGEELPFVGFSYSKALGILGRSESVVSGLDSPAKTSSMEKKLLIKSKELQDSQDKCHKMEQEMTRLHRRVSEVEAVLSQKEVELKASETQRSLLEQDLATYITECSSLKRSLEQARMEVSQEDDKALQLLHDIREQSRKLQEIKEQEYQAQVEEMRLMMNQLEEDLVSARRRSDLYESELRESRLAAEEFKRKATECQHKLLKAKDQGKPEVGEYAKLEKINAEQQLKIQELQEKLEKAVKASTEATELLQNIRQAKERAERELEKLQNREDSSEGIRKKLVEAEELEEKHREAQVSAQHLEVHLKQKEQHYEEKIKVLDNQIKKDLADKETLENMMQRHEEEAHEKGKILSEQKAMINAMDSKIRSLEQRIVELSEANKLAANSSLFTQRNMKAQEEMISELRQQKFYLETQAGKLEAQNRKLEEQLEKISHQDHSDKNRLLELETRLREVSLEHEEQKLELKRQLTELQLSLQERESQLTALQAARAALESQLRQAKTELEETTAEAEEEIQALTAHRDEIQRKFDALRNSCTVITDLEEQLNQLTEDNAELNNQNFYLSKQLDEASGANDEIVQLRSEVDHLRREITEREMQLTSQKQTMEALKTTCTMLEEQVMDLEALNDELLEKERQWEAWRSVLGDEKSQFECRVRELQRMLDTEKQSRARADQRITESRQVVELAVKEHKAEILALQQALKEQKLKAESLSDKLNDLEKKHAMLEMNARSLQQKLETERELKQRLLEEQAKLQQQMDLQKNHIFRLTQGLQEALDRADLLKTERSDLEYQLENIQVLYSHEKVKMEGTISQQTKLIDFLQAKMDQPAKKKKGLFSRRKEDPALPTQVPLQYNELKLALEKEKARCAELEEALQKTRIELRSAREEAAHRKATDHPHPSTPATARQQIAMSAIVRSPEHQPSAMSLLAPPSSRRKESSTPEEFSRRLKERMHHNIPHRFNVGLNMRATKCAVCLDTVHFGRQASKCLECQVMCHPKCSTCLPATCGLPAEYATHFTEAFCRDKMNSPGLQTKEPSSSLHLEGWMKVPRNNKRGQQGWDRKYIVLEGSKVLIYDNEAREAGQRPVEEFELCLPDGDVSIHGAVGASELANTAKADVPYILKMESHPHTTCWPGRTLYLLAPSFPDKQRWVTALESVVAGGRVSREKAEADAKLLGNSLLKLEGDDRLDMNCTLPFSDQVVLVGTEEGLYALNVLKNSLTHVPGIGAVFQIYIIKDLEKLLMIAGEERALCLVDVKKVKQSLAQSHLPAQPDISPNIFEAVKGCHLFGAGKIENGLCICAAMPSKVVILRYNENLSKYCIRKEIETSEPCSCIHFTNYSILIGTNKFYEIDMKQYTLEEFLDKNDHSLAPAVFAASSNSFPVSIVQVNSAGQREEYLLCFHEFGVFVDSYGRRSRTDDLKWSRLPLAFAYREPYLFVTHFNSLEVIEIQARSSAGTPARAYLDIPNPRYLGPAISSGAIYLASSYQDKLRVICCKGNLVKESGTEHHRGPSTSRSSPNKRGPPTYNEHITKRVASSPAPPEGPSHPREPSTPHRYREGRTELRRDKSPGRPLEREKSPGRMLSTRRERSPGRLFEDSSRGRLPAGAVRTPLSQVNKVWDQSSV

Sequence of Phosphorylase b kinase gamma catalytic chain, skeletal muscle/heart isoform (Homo sapiens) (Q16816 whole entry, looked up, canonical isoform): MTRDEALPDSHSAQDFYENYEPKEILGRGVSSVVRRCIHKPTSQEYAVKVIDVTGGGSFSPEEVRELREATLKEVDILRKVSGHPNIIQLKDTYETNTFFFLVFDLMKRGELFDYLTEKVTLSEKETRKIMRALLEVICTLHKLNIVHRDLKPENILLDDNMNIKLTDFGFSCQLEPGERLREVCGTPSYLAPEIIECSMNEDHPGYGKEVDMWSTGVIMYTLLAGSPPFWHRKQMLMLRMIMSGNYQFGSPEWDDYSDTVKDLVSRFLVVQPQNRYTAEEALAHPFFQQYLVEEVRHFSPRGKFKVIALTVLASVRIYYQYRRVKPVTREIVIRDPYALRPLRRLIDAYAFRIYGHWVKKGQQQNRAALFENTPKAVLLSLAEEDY
Sequence of Myosin light chain kinase 2, skeletal/cardiac muscle (Homo sapiens) (Q9H1R3 whole entry): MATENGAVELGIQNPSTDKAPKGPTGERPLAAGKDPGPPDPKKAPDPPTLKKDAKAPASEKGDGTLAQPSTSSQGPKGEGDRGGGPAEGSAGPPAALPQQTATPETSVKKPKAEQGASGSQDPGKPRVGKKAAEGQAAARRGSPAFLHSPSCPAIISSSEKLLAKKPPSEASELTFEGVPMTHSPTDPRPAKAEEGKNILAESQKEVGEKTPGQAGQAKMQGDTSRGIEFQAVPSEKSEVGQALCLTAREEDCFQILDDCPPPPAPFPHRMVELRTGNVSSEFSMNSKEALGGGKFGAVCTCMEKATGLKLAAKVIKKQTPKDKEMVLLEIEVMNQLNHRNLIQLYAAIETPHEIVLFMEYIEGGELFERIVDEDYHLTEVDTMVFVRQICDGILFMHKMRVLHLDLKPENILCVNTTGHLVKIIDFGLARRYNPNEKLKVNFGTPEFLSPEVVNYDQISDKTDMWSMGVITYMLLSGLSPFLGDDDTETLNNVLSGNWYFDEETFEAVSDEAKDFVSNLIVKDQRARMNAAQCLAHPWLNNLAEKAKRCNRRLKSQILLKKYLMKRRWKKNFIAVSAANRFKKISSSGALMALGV
Sequence of Mitogen-activated protein kinase kinase kinase 20 (Homo sapiens) (Q9NYL2 2-800 limits assumed): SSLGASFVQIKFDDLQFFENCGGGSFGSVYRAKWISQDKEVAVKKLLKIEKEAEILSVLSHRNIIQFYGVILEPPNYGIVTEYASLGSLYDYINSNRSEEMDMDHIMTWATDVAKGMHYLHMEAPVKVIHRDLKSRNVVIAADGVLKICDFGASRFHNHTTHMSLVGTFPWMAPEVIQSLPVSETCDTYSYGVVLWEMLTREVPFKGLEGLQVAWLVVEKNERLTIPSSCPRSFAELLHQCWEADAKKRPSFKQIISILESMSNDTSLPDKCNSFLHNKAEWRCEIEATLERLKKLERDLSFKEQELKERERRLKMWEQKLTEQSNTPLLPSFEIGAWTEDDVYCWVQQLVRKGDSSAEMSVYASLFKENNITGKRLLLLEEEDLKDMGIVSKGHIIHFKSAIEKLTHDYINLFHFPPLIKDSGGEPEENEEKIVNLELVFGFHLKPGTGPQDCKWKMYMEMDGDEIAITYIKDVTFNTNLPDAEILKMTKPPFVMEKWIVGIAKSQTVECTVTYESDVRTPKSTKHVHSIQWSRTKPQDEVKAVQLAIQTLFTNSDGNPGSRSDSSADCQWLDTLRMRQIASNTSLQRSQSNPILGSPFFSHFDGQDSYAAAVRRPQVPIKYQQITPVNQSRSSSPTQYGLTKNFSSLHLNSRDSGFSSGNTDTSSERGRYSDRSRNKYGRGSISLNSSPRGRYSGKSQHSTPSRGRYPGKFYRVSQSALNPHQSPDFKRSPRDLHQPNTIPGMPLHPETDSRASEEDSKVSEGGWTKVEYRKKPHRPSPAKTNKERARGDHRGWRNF

In turn, `Cc1cc(F)c(C(=O)Nc2cccc(-c3nncn3C(C)C)n2)cc1-n1cnc(C2CC2)c1` came in with a % of control in [1] of 96%.

Take `O=C(NOC[C@H](O)CO)c1ccc(F)c(F)c1Nc1ccc(I)cc1F`: the % of control in assay [2] was 100%.

Take `C=CC(=O)Nc1cc(-n2c(=O)ccc3cnc4ccc(-c5ccc(NS(C)(=O)=O)cc5)cc4c32)ccc1C`: the % of control in assay [3] (at 1 µM) was 100%; in assay [3] (at 10 µM) it was 76%; in assay [4] (at 1 µM) it was 86%; in [4] (at 10 µM), 97%; in assay [5] (at 1 µM), 89%; in [5] (at 10 µM), 92%.

As to `C=CC(=O)Nc1cccc(C(=O)Nc2ccc(Nc3cc(-c4[nH]c(SC)nc4C)ccn3)cc2)c1`, the % of control in assay [6] (at 1 µM) stood at 83%; in assay [6] (at 5 µM), 59%; in assay [7] (at 1 µM), 85%; in [7] (at 5 µM), 85%; in assay [8] (at 1 µM) it was 85%; in [8] (at 5 µM) it was 81%. The % of control in assay [9] (at 1 µM) came out at 92%; in [9] (at 5 µM) it was 107%.

Compound `CCC(=O)N1CCN(c2ccc(-n3c(=O)ccc4cnc5ccc(-c6cnc7ccccc7c6)cc5c43)cc2C(F)(F)F)CC1` yielded a % of control in assay [10] of 59%.

Source of the values: ChEMBL document CHEMBL5465560, “Selectivity Literature for EUbOPEN Chemogenomic Library” (2024).
